This is an account of results in PubChem BioAssay (NCI).

SMILES strings stand for the structures.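 1) Cells in 96-well plates. 2) Compound, 48 h, 5 concentrations. 3) Linear interpolation between surrounding doses. 4) Unreached endpoint = highest concentration. The concentration for 50% growth inhibition is given as GI50. The concentration for full growth arrest is given as TGI.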

Common to all, as to experiment: NCI-60 cell line screen, 48 h
For assay [1], the system named is NCI/ADR-RES ovarian.
For assay [2], the system named is CCRF-CEM leukemia.
The test system of assay [3] is SF-268 CNS.
For assay [4], the system named is SR leukemia.
Assay [5] deals with KM12 colon.
The subject of assay [6] is OVCAR-8 ovarian.
Assay [7] deals with SNB-75 CNS.
Assay [8] has as its system NCI-H226 lung.
Assay [9] relates to MDA-MB-435.
Assay [10] concerns HT29 colon.

Regarding `COc1cc(C(=O)c2c(-c3ccccc3)oc3c(OC)cccc23)cc(OC)c1OC`, the GI50 in assay [1] is 40.9 nM; in [2], 53.2 nM; in [3], 128 nM; in assay [4], 36.3 nM; in [5], 56.7 nM; in [6], 110 nM. Moreover, the GI50 was 23.4 nM in [7], 236 nM in assay [8], 21.6 nM in [9] and 49.1 nM in assay [10]. The TGI in assay [2] is above 100000 nM; in [3] it was above 100000 nM; in assay [4] it was above 100000 nM; in assay [5], above 100000 nM; in [6] it was above 100000 nM; in [7] it was 552 nM. Besides, the TGI in assay [9] is 57.7 nM; in assay [10], above 100000 nM.
As for `COC1CC(O[C@H]2CC[C@@]3(C)[C@H](CC[C@@H]4[C@@H]3CC[C@]3(C)[C@@H](C5=CC(=O)OC5)[C@@H](OC(C)=O)C[C@]43O)C2)OC(C)C1O` (stereo not given in full), the GI50 in assay [1], in assay [2], in [3], in [4], in assay [5] and in assay [6] was below 10 nM each time. Further, the GI50 in assay [7], in assay [8], in assay [9] and in assay [10] was below 10 nM each time. The TGI in [1] is below 10 nM; in assay [3], below 10 nM; in assay [5], below 10.6 nM; in assay [6], below 10 nM; in assay [7], below 10 nM; in assay [8], below 10 nM. The TGI in [9] was below 10.9 nM; in assay [10] it was below 10 nM.
With `C=CCN=C(N/N=C/c1ccc([N+](=O)[O-])o1)NS(=O)(=O)c1cc(C(=O)Nc2ccc(Cl)cc2)c(Cl)cc1SC`, the GI50 in assay [1] is above 100000 nM; in assay [2], 4810 nM; in [3] it was 2850 nM; in [4], 1280 nM; in [5] it was 6890 nM; in assay [7] it was above 100000 nM. Further, the GI50 in assay [8] is 13500 nM; in [9], 2880 nM; in assay [10], 5810 nM. In addition, the TGI in assay [1] was above 100000 nM; in [2], above 100000 nM; in [3], above 100000 nM; in assay [4] it was above 23600 nM; in assay [5], above 100000 nM; in assay [6], above 20700 nM. The TGI in assay [7] is above 100000 nM; in [8], above 100000 nM; in [9], 7050 nM; in [10], above 100000 nM.
With `O=C(C/C(=N/O)C(=O)NC1=C(Cl)C(=O)c2ccccc2C1=O)CC(c1ccccc1)c1c(O)c2ccccc2oc1=O` (stereo not given), the TGI is above 100000 nM in assay [1]; above 100000 nM in assay [2]; 42500 nM in assay [3]; above 100000 nM in [4]; 17800 nM in assay [5]; above 100000 nM in [6]. Also, the TGI is 19000 nM in [7], 20300 nM in [8], 4720 nM in [9] and 44300 nM in assay [10].
Regarding `Cc1cc(NCCCN(C)C)c2ccc3c(ccc4c(NCCCN(C)C)cc(C)nc43)c2n1`, the GI50 was 583 nM in assay [1]; 158 nM in assay [2]; 176 nM in assay [3]; 354 nM in [4]; 205 nM in [5]; 114 nM in assay [6]. Further, the GI50 is 165 nM in assay [7], 215 nM in [8], 226 nM in assay [9] and 149 nM in assay [10]. The TGI in assay [1] is 3380 nM; in [2], 478 nM; in [3], 393 nM; in assay [4] it was above 100000 nM; in assay [5] it was 570 nM; in [6], 295 nM. Moreover, the TGI in assay [7] is 420 nM; in [8] it was 880 nM; in assay [9] it was 539 nM; in [10], 503 nM.
On to `Cc1cc2c(cc1Cl)SC1=NN(C)C(C)N1S2(=O)=O` (stereo not given), for which the GI50 was above 100000 nM in [1]; above 100000 nM in [2]; 98100 nM in assay [3]; 39200 nM in assay [4]; above 100000 nM in assay [5]; above 100000 nM in assay [6]. For the same compound, the GI50 in assay [7] was 35300 nM; in assay [8], above 100000 nM; in [9], above 100000 nM; in assay [10], above 100000 nM. Besides, the TGI in [1], in assay [2], in [3], in assay [4], in [5] and in assay [6] was above 100000 nM each time. For the same compound, the TGI in assay [7], in [8], in assay [9] and in assay [10] was above 100000 nM each time.
